Our source for the melting point values is patent US7718808B2, “Thiazole derivatives” (Kyowa Hakko Kirin Co., Ltd., priority 2003, dated 2010).

A word on the melting point: it is the temperature, or range, at which the solid turns liquid.

`COc1cccc(C(=O)Nc2nc(-c3ccco3)c(C(=O)C3CCC(=O)CC3)s2)c1` [Compound 451, N-[4-(2-Furyl)-5-(4-oxocyclohexylcarbonyl)thiazol-2-yl]-3-methoxybenzamide] returned a melting point of 176 to 183 °C.

As for `N#Cc1ccc(C(=O)Nc2nc(-c3ccco3)c(C(=O)C3CCC(=O)CC3)s2)cc1` [Compound 452, 4-Cyano-N-[4-(2-furyl)-5-(4-oxocyclohexylcarbonyl)thiazol-2-yl]benzamide], the melting point was in the range of 211 to 212 °C. Compound `O=C(Nc1nc(-c2ccco2)c(C(=O)C2CCOCC2)s1)c1ccccc1` [Compound 457, N-[4-(2-Furyl)-5-(tetrahydropyran-4-ylcarbonyl)thiazol-2-yl]benzamide] had a melting point of 221 to 222 °C. On to `Cc1ccccc1C(=O)Nc1nc(-c2ccco2)c(C(=O)C2CCOCC2)s1` [Compound 458, N-[4-(2-Furyl)-5-(tetrahydropyran-4-ylcarbonyl)thiazol-2-yl]-2-methylbenzamide], for which the melting point was 204 to 206 °C. In turn, `Cc1cccc(C(=O)Nc2nc(-c3ccco3)c(C(=O)C3CCOCC3)s2)c1` [Compound 459, N-[4-(2-Furyl)-5-(tetrahydropyran-4-ylcarbonyl)thiazol-2-yl]-3-methylbenzamide] returned a melting point of 197 to 201 °C. With `Cc1ccc(C(=O)Nc2nc(-c3ccco3)c(C(=O)C3CCOCC3)s2)cc1` [Compound 460, N-[4-(2-Furyl)-5-(tetrahydropyran-4-ylcarbonyl)thiazol-2-yl]-4-methylbenzamide] the figure was 190 to 192 °C; with `COc1ccccc1C(=O)Nc1nc(-c2ccco2)c(C(=O)C2CCOCC2)s1` [Compound 461, N-[4-(2-Furyl)-5-(tetrahydropyran-4-ylcarbonyl)thiazol-2-yl]-2-methoxybenzamide], 181 to 184 °C. In turn, `COc1ccc(C(=O)Nc2nc(-c3ccco3)c(C(=O)C3CCOCC3)s2)cc1` [Compound 463, N-[4-(2-Furyl)-5-(tetrahydropyran-4-ylcarbonyl)thiazol-2-yl]-4-methoxybenzamide] registered a melting point of 184 to 188 °C. On to `CN(C)c1cccc(C(=O)Nc2nc(-c3ccco3)c(C(=O)C3CCOCC3)s2)c1` [Compound 464, 3-(Dimethylamino)-N-[4-(2-furyl)-5-(tetrahydropyran-4-ylcarbonyl)thiazol-2-yl]benzamide], for which the melting point was 239 to 243 °C.

Turning to `CN(C)c1ccc(C(=O)Nc2nc(-c3ccco3)c(C(=O)C3CCOCC3)s2)cc1` [Compound 465, 4-(Dimethylamino)-N-[4-(2-furyl)-5-(tetrahydropyran-4-ylcarbonyl)thiazol-2-yl]benzamide], the melting point lay within 238 to 240 °C. Regarding `O=C(Nc1nc(-c2ccco2)c(C(=O)C2CCOCC2)s1)c1ccccc1F` [Compound 466, 2-Fluoro-N-[4-(2-furyl)-5-(tetrahydropyran-4-ylcarbonyl)thiazol-2-yl]benzamide], the melting point lay within 172 to 176 °C. For `O=C(Nc1nc(-c2ccco2)c(C(=O)C2CCOCC2)s1)c1cccc(F)c1` [Compound 467, 3-Fluoro-N-[4-(2-furyl)-5-(tetrahydropyran-4-ylcarbonyl)thiazol-2-yl]benzamide] the value was 229 to 231 °C; for `O=C(Nc1nc(-c2ccco2)c(C(=O)C2CCOCC2)s1)c1ccccc1Cl` [Compound 469, 2-Chloro-N-[4-(2-furyl)-5-(tetrahydropyran-4-ylcarbonyl)thiazol-2-yl]benzamide], 160 to 162 °C; for `O=C(Nc1nc(-c2ccco2)c(C(=O)C2CCOCC2)s1)c1cccc(Cl)c1` [Compound 470, 3-Chloro-N-[4-(2-furyl)-5-(tetrahydropyran-4-ylcarbonyl)thiazol-2-yl]benzamide], 210 to 212 °C. For `O=C(Nc1nc(-c2ccco2)c(C(=O)C2CCOCC2)s1)c1ccc(Cl)cc1` [Compound 471, 4-Chloro-N-[4-(2-furyl)-5-(tetrahydropyran-4-ylcarbonyl)thiazol-2-yl]benzamide] the value was 204 to 206 °C; for `N#Cc1ccccc1C(=O)Nc1nc(-c2ccco2)c(C(=O)C2CCOCC2)s1` [Compound 472, 2-Cyano-N-[4-(2-furyl)-5-(tetrahydropyran-4-ylcarbonyl)thiazol-2-yl]benzamide], 221 to 224 °C.

Compound `N#Cc1cccc(C(=O)Nc2nc(-c3ccco3)c(C(=O)C3CCOCC3)s2)c1` [Compound 473, 3-Cyano-N-[4-(2-furyl)-5-(tetrahydropyran-4-ylcarbonyl)thiazol-2-yl]benzamide] yielded a melting point of 257 to 260 °C. For `N#Cc1ccc(C(=O)Nc2nc(-c3ccco3)c(C(=O)C3CCOCC3)s2)cc1` [Compound 474, 4-Cyano-N-[4-(2-furyl)-5-(tetrahydropyran-4-ylcarbonyl)thiazol-2-yl]benzamide] the value was 231 to 234 °C; for `O=C(Nc1nc(-c2ccco2)c(C(=O)C2CCOCC2)s1)c1ccccc1OC(F)(F)F` [Compound 475, N-[4-(2-Furyl)-5-(tetrahydropyran-4-ylcarbonyl)thiazol-2-yl]-2-(trifluoromethoxy)benzamide], 131 to 134 °C. Consider `O=C(Nc1nc(-c2ccco2)c(C(=O)C2CCOCC2)s1)c1cccc(OC(F)(F)F)c1` [Compound 476, N-[4-(2-Furyl)-5-(tetrahydropyran-4-ylcarbonyl)thiazol-2-yl]-3-(trifluoromethoxy)benzamide], for which the melting point was 197 to 198 °C.

Turning to `O=C(Nc1nc(-c2ccco2)c(C(=O)C2CCOCC2)s1)c1ccc(OC(F)(F)F)cc1` [Compound 477, N-[4-(2-Furyl)-5-(tetrahydropyran-4-ylcarbonyl)thiazol-2-yl]-4-(trifluoromethoxy)benzamide], the melting point is 177 to 180 °C. For the compound `CN(C)Cc1ccc(C(=O)Nc2nc(-c3ccco3)c(C(=O)C3CCOCC3)s2)cc1` [Compound 479, 4-(Dimethylaminomethyl)-N-[4-(2-furyl)-5-(tetrahydropyran-4-ylcarbonyl)thiazol-2-yl]benzamide], the melting point is 109 to 112 °C.

`O=C(Nc1nc(-c2ccco2)c(C(=O)C2CCOCC2)s1)c1ccc(CN2CCCCC2)cc1` [Compound 480, N-[4-(2-Furyl)-5-(tetrahydropyran-4-ylcarbonyl)thiazol-2-yl]-4-(piperidinomethyl)benzamide] showed a melting point of 160 to 162 °C. Compound `O=C(Nc1nc(-c2ccco2)c(C(=O)C2CCOCC2)s1)c1ccc(CN2CCC(O)CC2)cc1` [Compound 481, N-[4-(2-Furyl)-5-(tetrahydropyran-4-ylcarbonyl)thiazol-2-yl]-4-(4-hydroxypiperidinomethyl)benzamide] had a melting point of 194 to 195 °C. `O=C(Nc1nc(-c2ccco2)c(C(=O)C2CCOCC2)s1)c1ccc(CN2CCOCC2)cc1` [Compound 482, N-[4-(2-Furyl)-5-(tetrahydropyran-4-ylcarbonyl)thiazol-2-yl]-4-(morpholinomethyl)benzamide] registered a melting point of 92 to 96 °C. In turn, `COc1cccc(C(=O)Nc2nc(-c3ccco3)c(C(=O)C3CCOCC3)s2)c1OC` [Compound 483, N-[4-(2-Furyl)-5-(tetrahydropyran-4-ylcarbonyl)thiazol-2-yl]-2,3-dimethoxybenzamide] gave a melting point of 198 to 200 °C.
